Source: patent US11077108B2, “Allosteric corticotropin-releasing factor receptor 1 (CRFR1) antagonists that decrease p-tau and improve cognition” (The Regents of the University of California, priority 2016, dated 2021)
pKd, pKi: −log10 of the molar value. Where “and” joins values, the source holds several entries; their conditions need not be identical. Equal values may be shown once. Values belong to the compound of their own block, whether it stands above or below them.

Tests used:
CRFR1 [1] = target: T1, CRFR1 (Homo sapiens, UniProt P34998); test: Radioligand-receptor binding assay (agonist radioligand), CRF1 Kd; set-up: expressed in transfected cells; host or cells: HEK293 (permanently transfected), membranes; details: [125I]Tyr-sauvagine agonist radioligand
T1 sequence (P34998 24-415): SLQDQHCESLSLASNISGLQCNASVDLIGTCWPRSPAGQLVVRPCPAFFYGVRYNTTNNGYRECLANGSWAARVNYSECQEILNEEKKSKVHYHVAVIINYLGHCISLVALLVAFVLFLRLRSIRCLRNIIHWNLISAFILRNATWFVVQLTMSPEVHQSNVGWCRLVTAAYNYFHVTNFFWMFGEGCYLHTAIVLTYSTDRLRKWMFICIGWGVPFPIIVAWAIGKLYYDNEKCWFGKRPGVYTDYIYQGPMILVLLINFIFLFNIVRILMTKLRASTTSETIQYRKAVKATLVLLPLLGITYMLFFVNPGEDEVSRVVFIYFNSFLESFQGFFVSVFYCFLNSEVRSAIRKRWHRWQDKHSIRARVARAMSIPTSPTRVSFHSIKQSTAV
Method: Radioligand-Receptor Binding Assays (Agonist Radioligand).
Isolation of membranes from permanently transfected HEK293 cells expressing tCRFR1 or hCRFR1 and Scatchard analysis were performed with 50-100 ng protein as described (3) except that 50 pM [^125I]Tyr-sauvagine (NEN) was used as radioligand. [^125I]Tyr-Sauvagine was chosen as radioligand because of its equal high affinity for both CRF-R1 and CRF-R2. Nonspecific binding was always defined as residual [^125I]Tyr-sauvagine binding in the presence of 1 μM unlabeled ligand. The dissociation constant, KD, was calculated by the Ligand program (Munson et al. (1980) Anal. Biochem. 107: 220).

[2] = Parallel Artificial Membrane Permeability Assay (PAMPA), kIAM on IAM.PC.DD.2 HPLC column; format: in vitro ADME; details: kIAM >1 indicative of good brain permeability
Method: Receptor Binding, Inhibition, and Parallel Artificial Membrane Permeability Assay (PAMPA).
Agilent 1260 infinity high-performance liquid chromatography system was used for analysis. The analytical column used was an IAM.PC.DD.2 column (4.6 mm i.d.×10 cm length, particle size […], pore size 300 Å) purchased from Regis Technologies (Morton Grove, Ill.). The mobile phase was a mixture of acetonitrile and water (35:65 v/v). The flow rate of the mobile phase was maintained at 1.0 ml/min at 25° C., and the ultraviolet absorption wavelength was set at 254 nm. Analysis was performed using 5 μL injection of the 2 mM stock solutions of the compounds. Compounds with kIAM values >1 in the PAMPA assay in our hands are indicative of good brain permeability.

CRFR1 [3] = target: T1, CRFR1; test: CRF1 antagonist effect (inhibition of CRFR1 cAMP signaling upon CRF binding); format: cell-based; set-up: expressed in transfected cells; host or cells: COS-M6 (transiently transfected)
[4] = tested on: tau and ptau in SH-SY5Y cells; test: tau and p-tau levels in SH-SY5Y cells after compound treatment (AlphaLISA); format: cell-based, Human; details: 1 μM compound, 24 hours, no CRF
Method: Human neuroblastoma SH-SY5Y cells were treated for 24 hours with 1 μM compound, and then tau and ptau levels were determined from cell lysates using AlphaLISA (FIG. 7A). T41, as well as J32. […] Antalarmin (Ant), a known CRF1 antagonist, was used as a control.

human sAPPα = test: In vivo sAPPα, CTS-treated GS mice; set-up: species or system mouse; details: T41 30 mkd oral + CTS, 21 days
Source text: (§1) The purpose of this study was to determine behavioral and biochemical effects of T41 (shown below and in FIG. 2) and its ability to prevent corticosterone (CTS)-induced increases in ptau in the “Goldstein” (GS) prnp-huAPPwt-YFP mouse model. Corticosterone is known to increase CRF, which then should bind the receptor and trigger increases in ptau with chronic CTS injection. Biochemistry included total tau, ptau, and sAPPα from combined entorhinal cortex and hippocampus. Levels of sAPPβ, βCTF, and […] and -42 are believed to be too low to detect in this model.
The assay used to detect sAPPα recognizes human sAPPα, therefore the signal is expected to be undetectable in NTg mice. There was little or no difference between GS Veh and GS CTS mice (FIG. 13). […] Increases in sAPPα are correlated with improvement in cognition.

[5] = In vivo pharmacokinetics, plasma and brain levels; details: adult mice
Method: FIG. 10 illustrates in vivo pharmacokinetics for T41. As shown in the top panel, after oral or subcutaneous (SQ) dosing of adult mice at 10 or 30 mg/kg. and collection of plasma and brain at 1, 2, 4, and 8 hours, the brain/plasma ratio was ˜3:2 for 30 mg/kg oral dosing and ˜2:1 for 30 mg/kg SQ injection. […] After oral dosing at 30 mg/kg, brain levels peaked at 1 hour at 328 ng/g.

[6] = tested on: tau and ptau in SH-SY5Y cells with CRF challenge; test: CRF challenge assay, tau and p-tau in SH-SY5Y cells; format: cell-based, Human; details: for ptau/tau ratio: 1 μM compound, three days
Method: […] On the next day, cells were treated with 100 nM CRF for 3 days. Next, cells were lysed with RIPA buffer complemented with Halt Cocktail Inhibitors, and freeze/thaw 3 times. […] Significance was not seen without CRF due to low N#, but is highly significant with CRF.

[7] = tested on: "Goldstein" (GS) prnp-huAPPwt-YFP mouse model; test: Novel Object Recognition (NOR) in corticosterone (CTS)-treated GS mice; format: in vivo; details: T41 30 mkd oral 1 hour before CTS 30 mkd SQ, 21 days
Source text: as §1

ptau and total tau = test: In vivo ptau, total tau and ptau/tau ratio, combined entorhinal cortex and hippocampus, CTS-treated GS mice; set-up: species or system mouse; details: T41 30 mkd oral + CTS, 21 days
[8] = 1 μM compound and 100 nM CRF, 24 hours
[9] = hippocampus and entorhinal cortex

Structure (SMILES): CCC(COC)Oc1nc(C)nc(Nc2cnn(C)c2C)c1C (stereo not shown) [Compound T53]
CRF1 (agonist radioligand) Kd/(nM) (CRFR1 [1]): DEAD

Structure (SMILES): CCC(COC)Oc1nc(C)nc(Nc2ccc(F)cc2C(F)(F)F)c1C (stereo not shown) [Compound T46]
PAMPA KIAM [2]: 2.90 | pKd (CRFR1 [1]): < 7.00

Structure (SMILES): CCC(COC)Oc1nc(C)nc(Nc2ccn(C)n2)c1C (stereo not shown) [Compound T54]
CRF1 (agonist radioligand) Kd/(nM) (CRFR1 [1]): DEAD

Structure (SMILES): CCC(COC)Oc1nc(C)nc(Nc2c(F)cc(F)cc2F)c1C (stereo not shown) [Compound T47]
PAMPA KIAM [2]: 2.00 | pKd (CRFR1 [1]): < 7.00

Structure (SMILES): CCC(COC)Nc1nc(C)nc(Oc2c(C)cc(C)cc2C)c1C (stereo not shown) [Compound T33]
EC50 (CRFR1 [3]; values given in μM): > 2 µM | p-tau [4]: slightly decreased | total tau [4]: slightly decreased | PAMPA KIAM [2]: 6.34 | pKd (CRFR1 [1]): ~7.52

Structure (SMILES): CCC(COC)Oc1nc(C)nc(Nc2ccc(OC)cc2C)c1C (stereo not shown) [Compound T38, N-(4-methoxy-2-methylphenyl)-6-((1-methoxybutan-2-yl)oxy)-2,5-dimethylpyrimidin-4-amine]
EC50 (CRFR1 [3]; values given in μM): > 2 µM | PAMPA KIAM [2]: 2.02 | pKd (CRFR1 [1]): ~7.52

Structure (SMILES): CCC(COC)Oc1nc(C)nc(Nc2ncc(C)cc2C)c1C (stereo not shown) [Compound T51]
pKd (CRFR1 [1]): 6.00

Structure (SMILES): CCC(COC)Nc1nc(C)nc(Oc2ccc(Cl)cc2C)c1C (stereo not shown) [Compound T37, 6-(4-chloro-2-methylphenoxy)-N-(1-methoxybutan-2-yl)-2,5-dimethylpyrimidin-4-amine]
PAMPA KIAM [2]: 5.79 | pKd (CRFR1 [1]): < 7.00

Structure (SMILES): CCC(COC)Oc1nc(C)nc(Nc2ccc(Cl)cc2C)c1C (stereo not shown) [Compound T39]
EC50 (CRFR1 [3]; values given in μM): > 10 µM | p-tau [4]: slightly decreased | p-tau/tau ratio [4]: significantly decreased | total tau [4]: slightly decreased | PAMPA KIAM [2]: 6.19 | pKd (CRFR1 [1]): 7.12

Structure (SMILES): CCC(COC)Oc1nc(C)nc(OC(CC)COC)c1C (stereo not shown) [Compound T40]
PAMPA KIAM [2]: 4.68 | pKd (CRFR1 [1]): < 7.00

Second part, led by results:

PAMPA KIAM [2]: 2.31 | pKd (CRFR1 [1]): < 7.00
Structure (SMILES): CCC(COC)Nc1nc(C)nc(Oc2ccc(OC)cc2C)c1C (stereo not shown) [Compound T36, 6-(4-methoxy-2-methylphenoxy)-N-(1-methoxybutan-2-yl)-2,5-dimethylpyrimidin-4-amine]

PAMPA KIAM [2]: 3.32 | pKd (CRFR1 [1]): < 7.00
Structure (SMILES): CCC(COC)Oc1nc(C)nc(Nc2ccc(F)cc2F)c1C (stereo not shown) [Compound T45]

pKi (CRFR1 [3]; CRFR1 cAMP signaling upon CRF binding): 6.40 | inhibition at 1 µM (CRFR1 [3]; at 1 μM, upon CRF binding): 70% | EC50 (CRFR1 [3]; values in nM): 0.4 µM | peak brain level ([5]; oral dosing at 30 mg/kg): 328 ng/g | time of peak brain level ([5]; oral dosing at 30 mg/kg): 1 h | PAMPA KIAM [2]: 4.01 | pKd (CRFR1 [1]): ~7.82 and 7.82
Structure (SMILES): CCC(COC)Oc1nc(C)nc(Nc2c(C)cc(C)cc2C)c1C (stereo not shown) [Compound T41]
sAPPα (human sAPPα): trend toward an increase in sAPPα in T41-treated mice that was not statistically significant | brain levels, comparison of doses and routes ([5]; 10 or 30 mg/kg, oral or SQ): higher at 30 than 10 mg/kg and higher with SQ injection than oral delivery | p-tau [6, 8]: lowers p-tau with high significance | p-tau/tau ratio [6, 8]: significant lowering | tau [6, 8]: does not lower tau | ptau/tau ratio ([6]; with 100 nM CRF): lowers the ptau/tau ratio | ptau/tau ratio ([6]; without CRF): lowers the ptau/tau ratio | p-tau [4]: slightly decreased | p-tau/tau ratio [4]: significantly decreased | total tau [4]: slightly decreased | novelty preference (NOR), post-study [7]: promising trend toward some increased novelty preference | ptau (ptau and total tau; [9]): no significant difference | total tau (ptau and total tau; [9]): overall had the highest value | ptau/tau ratio (ptau and total tau; versus CTS alone): T41 pre-treatment to prevent that increase

PAMPA KIAM [2]: 3.27
Structure (SMILES): CCC(COC)Oc1nc(C)nc(Nc2ccc(F)cc2C)c1C (stereo not shown) [Compound T48]

pKd (CRFR1 [1]): 7.40
Structure (SMILES): CCC(COC)Oc1nc(C)nc(Nc2c(C)cc(F)cc2C)c1C (stereo not shown) [Compound T49]
